Here are results for 25 compounds from patent publication EP4692090A1 (Shanghai Fosun Pharmaceutical (Group) Co., Ltd., priority 2023, dated 2024).

The IC50 is the point on the concentration scale where inhibition reaches its midpoint.

One assay has as its target T1, ATR kinase (Homo sapiens, UniProt Q13535).
T1 construct: purchased Eurofins 14-953
The assay can be described thus: Inhibitory effect on ATR kinase activity (Caliper mobility shift, FAM-labeled RAD17 peptide substrate). Type of assay: biochemical. The essentials: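 Caliper mobility-shift assay with 1 nM ATR, FAM-labeled RAD17 peptide […] and 5 mM ATP in HEPES pH 7.5 with 10 mM MnCl2, run 3 h at 28 °C and stopped with EDTA. Compounds were tested in 10-point 3-fold dilutions from 1 µM. IC50 was fitted from % inhibition of substrate conversion versus blank control.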

The test system of another assay is LoVo cells. The assay can be described thus: LoVo cell proliferation assay (CellTiter-Glo). Particulars: Homo sapiens, LoVo, 120 h, maximum concentration 10 µM, 9 concentrations; for pIC50: LoVo cells, 2,000 cells per well, 5 days incubation, CellTiter-Glo, read-out: LoVo IC50; for IC50: read-out: LoVo IC50 (nM), LoVo cells, 2,000 cells per well, 5 days incubation, CellTiter-Glo. The format is cell-based. An outline of the steps: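 LoVo cells, 2,000 per well, were treated after overnight attachment with 9-point 3-fold dilutions from 10 µM for 5 days at 37 °C. Viability was read by CellTiter-Glo luminescence. Inhibition % was taken relative to DMSO control, and IC50 came from the concentration–inhibition curve.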
Background: Cellular ATP, detected with luciferase, serves as a proxy for viable cell number.

Setting [1] is: 1 nM ATR kinase (Eurofins), 28°C for 3 hours, maximum concentration 1 µM, 10 concentrations, read-out: ATR kinase IC50.
Setting [2] is: read-out: ATR kinase IC50, 1 nM ATR kinase (Eurofins), 28°C for 3 hours, maximum concentration 1 µM, 10 concentrations.

The structures appear in SMILES notation. pIC50: −log10 of the molar value. Where two headings read alike, the source gives them in different places.

T1 sequence (Q13535 whole entry): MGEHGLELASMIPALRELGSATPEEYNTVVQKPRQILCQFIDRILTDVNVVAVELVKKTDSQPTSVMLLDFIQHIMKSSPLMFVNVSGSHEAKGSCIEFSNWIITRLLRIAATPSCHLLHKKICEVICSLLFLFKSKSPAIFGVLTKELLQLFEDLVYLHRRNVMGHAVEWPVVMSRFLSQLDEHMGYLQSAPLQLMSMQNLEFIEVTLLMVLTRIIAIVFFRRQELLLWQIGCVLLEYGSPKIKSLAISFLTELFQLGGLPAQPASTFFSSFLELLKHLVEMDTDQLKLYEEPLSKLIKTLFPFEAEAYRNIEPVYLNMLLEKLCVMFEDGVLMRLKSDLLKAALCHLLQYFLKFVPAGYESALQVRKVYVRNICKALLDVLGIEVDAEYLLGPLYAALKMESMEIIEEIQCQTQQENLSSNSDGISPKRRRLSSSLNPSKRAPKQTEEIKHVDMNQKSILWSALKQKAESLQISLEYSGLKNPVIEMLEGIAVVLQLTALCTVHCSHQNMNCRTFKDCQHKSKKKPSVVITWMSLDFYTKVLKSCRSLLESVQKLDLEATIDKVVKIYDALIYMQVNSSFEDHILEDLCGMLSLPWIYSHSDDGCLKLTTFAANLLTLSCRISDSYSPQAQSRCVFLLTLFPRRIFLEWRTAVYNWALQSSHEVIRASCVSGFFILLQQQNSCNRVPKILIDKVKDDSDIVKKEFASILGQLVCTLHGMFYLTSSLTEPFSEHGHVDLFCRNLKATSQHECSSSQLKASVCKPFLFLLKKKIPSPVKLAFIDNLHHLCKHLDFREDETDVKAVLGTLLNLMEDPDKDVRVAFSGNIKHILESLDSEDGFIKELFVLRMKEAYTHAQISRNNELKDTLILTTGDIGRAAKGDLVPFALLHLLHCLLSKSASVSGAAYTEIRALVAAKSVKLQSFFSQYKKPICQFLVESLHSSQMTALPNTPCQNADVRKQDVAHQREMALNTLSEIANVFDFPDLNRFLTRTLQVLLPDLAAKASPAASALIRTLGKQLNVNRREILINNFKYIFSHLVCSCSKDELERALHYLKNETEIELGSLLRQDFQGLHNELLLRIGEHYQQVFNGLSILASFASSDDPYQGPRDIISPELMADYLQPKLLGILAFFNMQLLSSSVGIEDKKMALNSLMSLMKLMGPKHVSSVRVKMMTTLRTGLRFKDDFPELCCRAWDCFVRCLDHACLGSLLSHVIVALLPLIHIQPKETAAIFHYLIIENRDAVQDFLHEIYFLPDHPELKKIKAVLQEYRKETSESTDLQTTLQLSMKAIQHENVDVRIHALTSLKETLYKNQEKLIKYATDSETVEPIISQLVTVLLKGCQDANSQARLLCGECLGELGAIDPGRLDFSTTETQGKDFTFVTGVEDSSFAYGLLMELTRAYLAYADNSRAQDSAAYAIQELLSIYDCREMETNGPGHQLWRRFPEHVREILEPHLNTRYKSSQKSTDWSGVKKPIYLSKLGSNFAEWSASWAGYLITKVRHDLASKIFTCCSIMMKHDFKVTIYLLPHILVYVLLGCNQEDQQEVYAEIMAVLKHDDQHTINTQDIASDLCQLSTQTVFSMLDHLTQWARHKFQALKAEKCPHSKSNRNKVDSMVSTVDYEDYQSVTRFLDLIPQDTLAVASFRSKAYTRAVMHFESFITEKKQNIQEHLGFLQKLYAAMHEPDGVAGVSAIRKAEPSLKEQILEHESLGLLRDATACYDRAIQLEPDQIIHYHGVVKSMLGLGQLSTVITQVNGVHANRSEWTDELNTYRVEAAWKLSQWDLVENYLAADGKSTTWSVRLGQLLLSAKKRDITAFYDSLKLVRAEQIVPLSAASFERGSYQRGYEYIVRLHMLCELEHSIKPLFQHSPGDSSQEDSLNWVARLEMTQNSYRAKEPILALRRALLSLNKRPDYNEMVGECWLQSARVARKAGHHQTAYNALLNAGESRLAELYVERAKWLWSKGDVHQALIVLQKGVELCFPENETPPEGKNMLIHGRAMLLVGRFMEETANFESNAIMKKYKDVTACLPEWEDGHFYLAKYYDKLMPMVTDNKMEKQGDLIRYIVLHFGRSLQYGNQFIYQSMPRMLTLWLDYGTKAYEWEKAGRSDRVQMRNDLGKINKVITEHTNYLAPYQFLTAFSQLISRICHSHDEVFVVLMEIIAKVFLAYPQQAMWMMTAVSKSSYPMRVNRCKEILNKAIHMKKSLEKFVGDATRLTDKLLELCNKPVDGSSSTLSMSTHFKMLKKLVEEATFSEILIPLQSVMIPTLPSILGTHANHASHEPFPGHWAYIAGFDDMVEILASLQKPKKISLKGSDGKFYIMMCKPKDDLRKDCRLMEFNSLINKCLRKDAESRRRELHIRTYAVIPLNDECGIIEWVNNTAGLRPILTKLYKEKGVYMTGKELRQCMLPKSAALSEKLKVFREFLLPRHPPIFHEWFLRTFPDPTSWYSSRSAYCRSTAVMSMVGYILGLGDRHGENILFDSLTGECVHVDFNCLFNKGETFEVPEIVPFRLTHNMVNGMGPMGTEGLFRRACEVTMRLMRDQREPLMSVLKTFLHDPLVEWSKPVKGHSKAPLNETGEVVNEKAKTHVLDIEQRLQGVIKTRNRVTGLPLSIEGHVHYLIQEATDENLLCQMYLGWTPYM
T1 sequence (Q8WXE1 whole entry partner): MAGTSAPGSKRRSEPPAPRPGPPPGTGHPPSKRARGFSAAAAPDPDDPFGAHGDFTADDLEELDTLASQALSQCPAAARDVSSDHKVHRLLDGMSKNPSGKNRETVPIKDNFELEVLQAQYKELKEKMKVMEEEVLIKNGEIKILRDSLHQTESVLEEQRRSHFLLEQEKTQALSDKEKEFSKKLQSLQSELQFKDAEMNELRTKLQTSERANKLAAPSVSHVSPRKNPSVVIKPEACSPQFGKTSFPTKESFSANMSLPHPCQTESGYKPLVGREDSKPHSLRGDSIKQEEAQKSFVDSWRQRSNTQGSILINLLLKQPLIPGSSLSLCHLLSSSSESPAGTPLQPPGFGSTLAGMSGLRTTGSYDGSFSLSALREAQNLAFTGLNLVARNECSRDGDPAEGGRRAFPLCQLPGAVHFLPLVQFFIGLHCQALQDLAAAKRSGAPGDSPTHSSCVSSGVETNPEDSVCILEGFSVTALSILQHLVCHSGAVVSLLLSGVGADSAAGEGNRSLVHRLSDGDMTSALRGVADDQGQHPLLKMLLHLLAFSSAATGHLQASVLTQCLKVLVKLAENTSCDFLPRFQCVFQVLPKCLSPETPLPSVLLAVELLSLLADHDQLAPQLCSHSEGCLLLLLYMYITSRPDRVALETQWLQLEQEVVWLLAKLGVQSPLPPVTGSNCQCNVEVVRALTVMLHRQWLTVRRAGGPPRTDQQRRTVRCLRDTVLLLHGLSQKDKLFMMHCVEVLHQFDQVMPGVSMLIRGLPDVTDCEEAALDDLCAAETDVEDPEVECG

As to `C[C@@H]1COCCN1c1cc2c3c(nn(-c4cc[nH]n4)c3n1)CCN(C(=O)C1CC(F)(F)C1)C2` [Compound 9, (R)-(3,3-difluorocyclobutyl)(4-(3-methylmorpholino)-2-(1H-pyrazol-3-yl)-2,6,8,9-tetrahydro-7H-1,2,3,7-tetraazabenzo[cd]azulene-7-yl)methanone], the pIC50 at ATR kinase (setting [1]) is 7.00 to 8.00; in the assay with LoVo cells, less than 6.00.

Consider `C[C@@H]1COCCN1c1cc2c3c(nn(-c4cc[nH]n4)c3n1)CCN(C(=O)CC(F)(F)F)C2` [Compound 10, (R)-3,3,3-trifluoro-1-(4-(3-methylmorpholino)-2-(1H-pyrazol-3-yl)-2,6,8,9-tetrahydro-7H-1,2,3,7-tetraazabenzo[cd]azulen-7-yl)propan-1-one], for which the pIC50 on ATR kinase (setting [1]) is 7.00 to 8.00; in the assay with LoVo cells it was less than 6.00.

Take `C[C@@H]1COCCN1c1cc2c3c(nn(-c4cc[nH]n4)c3n1)CCN(C1CC3(CC3)C1)C2` [Compound 11]: the pIC50 on ATR kinase (setting [1]) was 7.00 to 8.00; in the assay with LoVo cells, 6.00 to 7.00.

In the case of `CC1COCC1N1CCc2nn(-c3cc[nH]n3)c3nc(N4CCOC[C@H]4C)cc(c23)C1` (stereo partly drawn) [Compound 12, (3R)-3-methyl-4-(7-(4-methyltetrahydrofuran-3-yl)-2-(1H-pyrazol-3-yl)-6,7,8,9-tetrahydro-2H-1 ,2,3,7-tetraazabenzo[cd]azulen-4-yl)morpholine], the pIC50 is 7.00 to 8.00 on ATR kinase (setting [1]) and 6.00 to 7.00 in the assay with LoVo cells.

Regarding `C[C@@H]1COCCN1c1cc2c3c(nn(-c4cc[nH]n4)c3n1)CCN(CC(F)(F)F)C2` [Compound 14, (R)-4-(2-(1H-pyrazol-3-yl)-7-(2,2,2-trifluoroethyl)-6,7,8,9-tetrahydro-2H-1,2,3,7-tetraazabenzo[cd]azulen-4-yl)-3-methylmorpholine], the pIC50 at ATR kinase (setting [1]) was 7.00 to 8.00; in the assay with LoVo cells, 6.00 to 7.00.

Turning to `CC1CC(C(=O)N2CCc3nn(-c4cc[nH]n4)c4nc(N5CCOC[C@H]5C)cc(c34)C2)C1` (stereo partly drawn) [Compound 15, (R)-(3-methylcyclobutyl)(4-(3-methylmorpholino)-2-(1H-pyrazol-3-yl)-2,6,8,9-tetrahydro-7H-1,2,3,7-tetraazabenzo[cd]azulene-7-yl)methanone], the values for the pIC50 on ATR kinase (setting [1]) and in the assay on LoVo cells were 7.00 to 8.00 and 6.00 to 7.00, respectively.

With `CC(C(=O)N1CCc2nn(-c3cc[nH]n3)c3nc(N4CCOC[C@H]4C)cc(c23)C1)C(F)(F)F` (stereo partly drawn) [Compound 16, 3,3,3-trifluoro-2-methyl-1-(4-((R)-3-methylmorpholinyl)-2-(1H-pyrazol-3-yl)-2,6,8,9-tetrahydro-7H-1,2,3,7-tetraazabenzo[cd]azulen-7-yl)propan-1-one], the pIC50 at ATR kinase (setting [2]) is more than 8.00. The IC50 with LoVo cells was 100 to 1000 nM.

As for `C[C@@H]1COCCN1c1cc2c3c(nn(-c4cc[nH]n4)c3n1)CCN(c1ccccc1)C2` [Compound 17, (R)-3-methyl-4-(7-phenyl-2-(1H-pyrazol-3-yl)-6,7,8,9-tetrahydro-2H-1,2,3,7-tetraazabenzo[cd]azulen-4-yl)morpholine], the pIC50 at ATR kinase (setting [1]) is 7.00 to 8.00; in the assay with LoVo cells it was less than 6.00.

As for `C[C@@H]1COCCN1c1cc2c3c(nn(-c4cc[nH]n4)c3n1)CCN(C(=O)C1(C(F)(F)F)CC1)C2` [Compound 18, (R)-(4-(3-methylmorpholinyl)-2-(1H-pyrazol-3-yl)-2,6,8,9-tetrahydro-7H-1,2,3,7-tetraazabenzo[cd]azulen-7-yl)(1-(trifluoromethyl)cyclopropyl)methanone], the pIC50 on ATR kinase (setting [2]) is more than 8.00. The IC50 with LoVo cells is less than 100 nM.

As for `C[C@@H]1COCCN1c1cc2c3c(nn(-c4cc[nH]n4)c3n1)CCN(C(=O)C1CC1(F)F)C2` (stereo partly drawn) [Compound 19, (2,2-difluorocyclopropyl)(4-((R)-3-methylmorpholino)-2-(1H-pyrazol-3-yl)-2,6,8,9-tetrahydro-7H-1,2,3,7-tetraazabenzo[cd]azulene-7-yl)methanone], the pIC50 on ATR kinase (setting [1]) is more than 8.00; in the assay with LoVo cells, 6.00 to 7.00.

Take `C#CC(C)N1CCc2nn(-c3cc[nH]n3)c3nc(N4CCOC[C@H]4C)cc(c23)C1` (stereo partly drawn) [Compound 21, (3R)-4-(7-(but-3-yn-2-yl)-2-(1H-pyrazol-3-yl)-6,7,8,9-tetrahydro-2H-1,2,3,7-tetraazabenzo[cd]azulen-4-yl)-3-methylmorpholine]: the pIC50 is 7.00 to 8.00 on ATR kinase (setting [1]) and 6.00 to 7.00 in the assay with LoVo cells.

As to `C[C@@H]1COCCN1c1cc2c3c(nn(-c4cc[nH]n4)c3n1)CCN(S(C)(=O)=O)C2` [Compound 22, (R)-3-methyl-4-(7-(methylsulfonyl)-2-(1H-pyrazol-3-yl)-6,7,8,9-tetrahydro-2H-1,2,3,7-tetraazabenzo[cd]azulen-4-yl)morpholine], the pIC50 at ATR kinase (setting [1]) is more than 8.00; in the assay on LoVo cells it was more than 7.00.

As to `C[C@@H]1COCCN1c1cc2c3c(nn(-c4cc[nH]n4)c3n1)CCN(S(=O)(=O)C1CC1)C2` [Compound 23, (R)-4-(7-(cyclopropylsulfonyl)-2-(1H-pyrazol-3-yl)-6,7,8,9-tetrahydro-2H-1,2,3,7-tetraazabenzo[cd]azulen-4-yl)-3-methylmorpholine], the pIC50 at ATR kinase (setting [1]) is more than 8.00; in the assay with LoVo cells, 6.00 to 7.00.

Turning to `CC(C)S(=O)(=O)N1CCc2nn(-c3cc[nH]n3)c3nc(N4CCOC[C@H]4C)cc(c23)C1` [Compound 24, (R)-4-(7-(isopropylsulfonyl)-2-(1H-pyrazol-3-yl)-6,7,8,9-tetrahydro-2H-1,2,3,7-tetraazabenzo[cd]azulen-4-yl)-3-methylmorpholine], the pIC50 at ATR kinase (setting [1]) was more than 8.00; in the assay on LoVo cells it was 6.00 to 7.00.

For the compound `C[C@@H]1COCCN1c1cc2c3c(nn(-c4cc[nH]n4)c3n1)CCN(S(=O)(=O)C(F)F)C2` [Compound 27, (R)-4-(7-((difluoromethyl)sulfonyl)-2-(1H-pyrazol-3-yl)-6,7,8,9-tetrahydro-2H-1,2,3,7-tetraazabenzo[cd]azulen-4-yl)-3-methylmorpholine], the pIC50 is more than 8.00 on ATR kinase (setting [1]) and 6.00 to 7.00 with LoVo cells.

Consider `C[C@@H]1COCCN1c1cc2c3c(nn(-c4cc[nH]n4)c3n1)CCN(S(C)(=N)=O)C2` (stereo partly drawn) [Compound 28, (3R)-3-methyl-4-(7-(S-methylsulfonylimino)-2-(1H-pyrazol-3-yl)-6,7,8,9-tetrahydro-2H-1,2,3,7-tetraazabenzo[cd]azulen-4-yl)morpholine], for which the pIC50 was 7.00 to 8.00 on ATR kinase (setting [1]) and less than 6.00 with LoVo cells.

Consider `CC1c2cc(N3CCOC[C@H]3C)nc3c2c(nn3-c2cc[nH]n2)CCN1S(=O)(=O)CCO` (some centres unmarked) [Compound 34], for which the pIC50 on ATR kinase (setting [2]) is more than 8.00. For the same compound, the IC50 with LoVo cells was 100 to 1000 nM.

Take `CC(=O)N1CCc2nn(-c3cc[nH]n3)c3nc(N4CCOC[C@H]4C)cc(c23)C1C` (stereo partly drawn) [Compound 38, 1-(6-methyl-4-((R)-3-methylmorpholinyl)-2-(1H-pyrazol-3-yl)-2,6,8,9-tetrahydro-7H-1,2,3,7-tetraazabenzo[cd]azulen-7-yl)ethan-1-one]: the pIC50 on ATR kinase (setting [2]) is more than 8.00. Moreover, in the assay on LoVo cells, the IC50 lay within 100 to 1000 nM.

Take `C=CS(=O)(=O)N1CCc2nn(-c3cc[nH]n3)c3nc(N4CCOC[C@H]4C)cc(c23)C1C` (stereo partly drawn) [Compound 50, (3R)-3-methyl-4-(6-methyl-2-(1H-pyrazol-3-yl)-7-(vinylsulfonyl)-6,7,8,9-tetrahydro-2H-1,2,3,7-tetraazabenzo[cd]azulen-4-yl)morpholine]: the pIC50 was more than 8.00 at ATR kinase (setting [1]) and more than 7.00 in the assay with LoVo cells.

On to `C[C@@H]1COCCN1c1cc2c3c(n1)c(-c1cc[nH]n1)nn3CCN(C1CC(F)(F)C1)C2` [Compound 52, (R)-4-(7-(3,3-difluorocyclobutyl)-2-(1H-pyrazol-3-yl)-6,7,8,9-tetrahydro-1,3,7,9a-tetraazabenzo[cd]azulen-4-yl)-3-methylmorpholine], for which the values for the pIC50 at ATR kinase (setting [1]) and in the assay with LoVo cells were 7.00 to 8.00 and less than 6.00, respectively.

Take `C[C@@H]1COCCN1c1cc2c3c(n1)c(-c1cc[nH]n1)nn3CCN(C(=O)C1CC(F)(F)C1)C2` [Compound 53, (R)-(3,3-difluorocyclobutyl)(4-(3-methylmorpholino)-2-(1H-pyrazol-3-yl)-8,9-dihydro-1,3,7,9a-tetraazabenzo[cd]azulene-7(6H)-yl)methanone]: the pIC50 is 7.00 to 8.00 at ATR kinase (setting [1]) and less than 6.00 in the assay on LoVo cells.

For the compound `C[C@@H]1COCCN1c1cc2c3c(n1)c(-c1cc[nH]n1)nn3CCN(C(=O)C1CC1)C2` [Compound 54, (R)-cyclopropyl(4-(3-methylmorpholino)-2-(1H-pyrazol-3-yl)-8,9-dihydro-1,3,7,9a-tetraazabenzo[cd]azulene-7(6H)-yl)methanone], the pIC50 on ATR kinase (setting [1]) was 7.00 to 8.00; in the assay on LoVo cells, 6.00 to 7.00.

Take `C[C@@H]1COCCN1c1cc2c3c(n1)c(-c1cc[nH]n1)nn3CCN(S(C)(=O)=O)C2` [Compound 55, (R)-3-methyl-4-(7-(methylsulfonyl)-2-(1H-pyrazol-3-yl)-6,7,8,9-tetrahydro-1,3,7,9a-tetraazabenzo[cd]azulen-4-yl)morpholine]: the pIC50 at ATR kinase (setting [1]) is 7.00 to 8.00; in the assay with LoVo cells, 6.00 to 7.00.

With `CC1NC(=O)Cn2nc(-c3cc[nH]n3)c3nc(N4CCOC[C@H]4C)cc1c32` (stereo partly drawn) [Compound 56, 6-methyl-4-((R)-3-methylmorpholinyl)-2-(1H-pyrazol-3-yl)-6,7-dihydro-1,3,7,9a-tetraazabenzo[cd]azulen-8(9H)-one], at ATR kinase (setting [2]), the pIC50 is 7.00 to 8.00. In addition, the IC50 in the assay with LoVo cells was more than 1000 nM.

Turning to `CC1c2cc(N3CCOC[C@H]3C)nc3c(-c4cc[nH]n4)nn(c23)CCN1C1COC1` (stereo partly drawn) [Compound 57, (3R)-3-methyl-4-(6-methyl-7-(oxetan-3-yl)-2-(1H-pyrazol-3-yl)-6,7,8,9-tetrahydro-1,3,7,9a-tetraazabenzo[cd]azulen-4-yl)morpholine], the pIC50 was 7.00 to 8.00 at ATR kinase (setting [1]) and 6.00 to 7.00 with LoVo cells.
